Assay results as given in PubChem BioAssay (NCI).
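Tested at 5 concentrations; 48 h exposure; 96-well plates; endpoints linearly interpolated, else capped at highest concentration. GI50 marks 50% less growth. TGI: total growth inhibition.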

What was measured:
Assay in all cases: NCI anticancer screen, dose series, 48 h
786-0 renal = system: 786-0 renal
A498 renal = system: A498 renal
A549 NSCLC = system: A549 NSCLC
ACHN renal = system: ACHN renal
BT-549 breast = system: BT-549 breast
CAKI-1 renal = system: CAKI-1 renal
CCRF-CEM leukemia = system: CCRF-CEM leukemia
COLO 205 colon = system: COLO 205 colon
DU-145 prostate = system: DU-145 prostate
EKVX NSCLC = system: EKVX NSCLC
HCC-2998 colon = system: HCC-2998 colon
HCT-116 colon = system: HCT-116 colon
HCT-15 colon = system: HCT-15 colon
HL-60(TB) leukemia = system: HL-60(TB) leukemia
HOP-62 NSCLC = system: HOP-62 NSCLC
HOP-92 NSCLC = system: HOP-92 NSCLC
HS 578T breast = system: HS 578T breast
HT29 colon = system: HT29 colon
IGROV1 ovarian = system: IGROV1 ovarian
KM12 colon = system: KM12 colon
LOX IMVI melanoma = system: LOX IMVI melanoma
M14 melanoma = system: M14 melanoma
MALME-3M melanoma = system: MALME-3M melanoma
MCF7 breast = system: MCF7 breast
MDA-MB-231 breast = system: MDA-MB-231 breast
MDA-MB-435 = system: MDA-MB-435
MOLT-4 leukemia = system: MOLT-4 leukemia
NCI-H226 lung = system: NCI-H226 lung
NCI-H23 lung = system: NCI-H23 lung
NCI-H460 lung = system: NCI-H460 lung
NCI-H522 lung = system: NCI-H522 lung
NCI/ADR-RES ovarian = system: NCI/ADR-RES ovarian
OVCAR-3 ovarian = system: OVCAR-3 ovarian
OVCAR-4 ovarian = system: OVCAR-4 ovarian
OVCAR-5 ovarian = system: OVCAR-5 ovarian
OVCAR-8 ovarian = system: OVCAR-8 ovarian
PC-3 prostate = system: PC-3 prostate
RPMI-8226 leukemia = system: RPMI-8226 leukemia
RXF 393 renal = system: RXF 393 renal
SF-268 CNS = system: SF-268 CNS
SF-295 CNS = system: SF-295 CNS
SF-539 CNS = system: SF-539 CNS
SK-MEL-2 melanoma = system: SK-MEL-2 melanoma
SK-MEL-28 melanoma = system: SK-MEL-28 melanoma
SK-MEL-5 melanoma = system: SK-MEL-5 melanoma
SK-OV-3 ovarian = system: SK-OV-3 ovarian
SN12C renal = system: SN12C renal
SNB-19 CNS = system: SNB-19 CNS
SNB-75 CNS = system: SNB-75 CNS
SR leukemia = system: SR leukemia
SW-620 colon = system: SW-620 colon
T-47D breast = system: T-47D breast
TK-10 renal = system: TK-10 renal
U251 CNS = system: U251 CNS
UACC-257 melanoma = system: UACC-257 melanoma
UACC-62 melanoma = system: UACC-62 melanoma
UO-31 renal = system: UO-31 renal

O=C1C(c2ccccc2)=C(N2CCc3ccccc32)OC1(Cl)Cl
GI50 (786-0 renal): 1.82 µM
TGI (786-0 renal): 4.21 µM
GI50 (A498 renal): 3.94 µM
TGI (A498 renal): 14.6 µM
GI50 (A549 NSCLC): 4.71 µM
TGI (A549 NSCLC): 32.7 µM
GI50 (ACHN renal): 2.27 µM
TGI (ACHN renal): 7.14 µM
GI50 (BT-549 breast): 2.15 µM
TGI (BT-549 breast): 6.26 µM
GI50 (CAKI-1 renal): 1.47 µM
TGI (CAKI-1 renal): 3.47 µM
GI50 (CCRF-CEM leukemia): 1.47 µM
TGI (CCRF-CEM leukemia): 5.56 µM
GI50 (COLO 205 colon): 1.85 µM
TGI (COLO 205 colon): 4.36 µM
GI50 (DU-145 prostate): 1.97 µM
TGI (DU-145 prostate): 3.9 µM
GI50 (EKVX NSCLC): 2.7 µM
TGI (EKVX NSCLC): 8.94 µM
GI50 (HCC-2998 colon): 2.91 µM
TGI (HCC-2998 colon): 8.88 µM
GI50 (HCT-116 colon): 1.58 µM
TGI (HCT-116 colon): 8.04 µM
GI50 (HCT-15 colon): 1.74 µM
TGI (HCT-15 colon): 4.56 µM
GI50 (HL-60(TB) leukemia): 2.21 µM
TGI (HL-60(TB) leukemia): 5.62 µM
GI50 (HOP-62 NSCLC): 12.2 µM
TGI (HOP-62 NSCLC): 35.8 µM
GI50 (HOP-92 NSCLC): 1.81 µM
TGI (HOP-92 NSCLC): 5.21 µM
GI50 (HS 578T breast): 2.99 µM
TGI (HS 578T breast): > 100 µM
GI50 (HT29 colon): 2.25 µM
TGI (HT29 colon): 5.37 µM
GI50 (IGROV1 ovarian): 4.44 µM
TGI (IGROV1 ovarian): 29 µM
GI50 (KM12 colon): 5.13 µM
TGI (KM12 colon): 18.8 µM
GI50 (LOX IMVI melanoma): 1.65 µM
TGI (LOX IMVI melanoma): 3.63 µM
GI50 (M14 melanoma): 1.77 µM
TGI (M14 melanoma): 3.73 µM
GI50 (MALME-3M melanoma): 1.89 µM
TGI (MALME-3M melanoma): 4.38 µM
GI50 (MCF7 breast): 2.29 µM
TGI (MCF7 breast): 9.59 µM
GI50 (MDA-MB-231 breast): 2.89 µM
TGI (MDA-MB-231 breast): 9.09 µM
GI50 (MDA-MB-435): 3.26 µM
TGI (MDA-MB-435): 11.4 µM
GI50 (MOLT-4 leukemia): 1.86 µM
TGI (MOLT-4 leukemia): 5.13 µM
GI50 (NCI-H226 lung): 1.8 µM
TGI (NCI-H226 lung): 4.27 µM
GI50 (NCI-H23 lung): 1.96 µM
TGI (NCI-H23 lung): 4.67 µM
GI50 (NCI-H460 lung): 3.96 µM
TGI (NCI-H460 lung): 20.2 µM
GI50 (NCI-H522 lung): 1.7 µM
TGI (NCI-H522 lung): 4.17 µM
GI50 (NCI/ADR-RES ovarian): 3.21 µM
TGI (NCI/ADR-RES ovarian): > 100 µM
GI50 (OVCAR-3 ovarian): 1.91 µM
TGI (OVCAR-3 ovarian): 3.89 µM
GI50 (OVCAR-4 ovarian): 3.38 µM
TGI (OVCAR-4 ovarian): 13.6 µM
GI50 (OVCAR-5 ovarian): 3.57 µM
TGI (OVCAR-5 ovarian): 10.4 µM
GI50 (OVCAR-8 ovarian): 3.58 µM
TGI (OVCAR-8 ovarian): > 100 µM
GI50 (PC-3 prostate): 4.03 µM
TGI (PC-3 prostate): 54.6 µM
GI50 (RPMI-8226 leukemia): 2.36 µM
TGI (RPMI-8226 leukemia): 6.09 µM
GI50 (RXF 393 renal): 1.44 µM
TGI (RXF 393 renal): 2.86 µM
GI50 (SF-268 CNS): 3.92 µM
TGI (SF-268 CNS): 29.4 µM
GI50 (SF-295 CNS): 14.1 µM
TGI (SF-295 CNS): 32.4 µM
GI50 (SF-539 CNS): 2.19 µM
TGI (SF-539 CNS): 5.17 µM
GI50 (SK-MEL-2 melanoma): 3.57 µM
TGI (SK-MEL-2 melanoma): 18.6 µM
GI50 (SK-MEL-28 melanoma): 2.27 µM
TGI (SK-MEL-28 melanoma): 4.99 µM
GI50 (SK-MEL-5 melanoma): 4.35 µM
TGI (SK-MEL-5 melanoma): 16.9 µM
GI50 (SK-OV-3 ovarian): 13.4 µM
TGI (SK-OV-3 ovarian): 30.9 µM
GI50 (SN12C renal): 2.7 µM
TGI (SN12C renal): 8.58 µM
GI50 (SNB-19 CNS): 5.27 µM
TGI (SNB-19 CNS): 22.9 µM
GI50 (SNB-75 CNS): 2.52 µM
TGI (SNB-75 CNS): 17.2 µM
GI50 (SR leukemia): 1.67 µM
TGI (SR leukemia): 5.92 µM
GI50 (SW-620 colon): 1.57 µM
TGI (SW-620 colon): 4.21 µM
GI50 (T-47D breast): 2.19 µM
TGI (T-47D breast): 9.86 µM
GI50 (TK-10 renal): 2 µM
TGI (TK-10 renal): 4.91 µM
GI50 (U251 CNS): 7.34 µM
TGI (U251 CNS): 21.6 µM
GI50 (UACC-257 melanoma): 2.53 µM
TGI (UACC-257 melanoma): 8.28 µM
GI50 (UACC-62 melanoma): 2.73 µM
TGI (UACC-62 melanoma): 10.8 µM
GI50 (UO-31 renal): 1.44 µM
TGI (UO-31 renal): 3.07 µM
